# Legend:
# [1] = target: recombinant rat α1β3γ2 receptors (Rattus norvegicus, UniProt P18508+P62813); experiment: Two-electrode voltage clamp of GABA-induced chloride currents in Xenopus oocytes; assay type: cell-based; conditions: α1β3γ2; for efficacy (% GABA EC3): ns = not significant
# [2] = target: recombinant rat α3β3γ2F77I receptors (Rattus norvegicus, UniProt P18508+P20236, F115I); experiment: as above; assay type: cell-based; conditions: α3β3γ2F77I, ns = not significant
# [3] = tested on: GABAA receptors containing the γ2F77I mutation; experiment: Modulation of GABA EC3 in receptors containing the γ2F77I mutation; assay type: cell-based, rat
# [4] = target: recombinant rat α1β3γ2F77I receptors (Rattus norvegicus, UniProt P18508+P62813, F115I); experiment: Two-electrode voltage clamp of GABA-induced chloride currents in Xenopus oocytes; assay type: cell-based; conditions: α1β3γ2F77I, ns = not significant
# [5] = target: recombinant rat α4β3γ2F77I receptors (Rattus norvegicus, UniProt P18508+P28471, F115I); experiment: as above; assay type: cell-based; conditions: ns = not significant
# [6] = target: recombinant rat α6β3γ2F77I receptors (Rattus norvegicus, UniProt P18508+P30191, F115I); experiment: as above; assay type: cell-based; conditions: ns = not significant
# [7] = target: recombinant rat α5β3γ2F77I receptors (Rattus norvegicus, UniProt P18508+P19969, F115I); experiment: as above; assay type: cell-based; conditions: α5β3γ2F77I, ns = not significant
# [8] = target: recombinant rat α2β3γ2F77I receptors (Rattus norvegicus, UniProt P18508+P23576, F115I); experiment: as above; assay type: cell-based; conditions: α2β3γ2F77I, ns = not significant
# [9] = target: recombinant rat α2β3γ2 receptors (Rattus norvegicus, UniProt P18508+P23576); experiment: as above; assay type: cell-based; conditions: α2β3γ2, ns = not significant
# [10] = target: recombinant rat α5β3γ2 receptors (Rattus norvegicus, UniProt P18508+P19969); experiment: as above; assay type: cell-based; conditions: α5β3γ2; for efficacy (% GABA EC3): ns = not significant
# [11] = target: recombinant rat α6β3γ2 receptors (Rattus norvegicus, UniProt P18508+P30191); experiment: as above; assay type: cell-based; conditions: α6β3γ2; for efficacy (% GABA EC3): ns = not significant
# [12] = target: recombinant rat α4β3γ2 receptors (Rattus norvegicus, UniProt P18508+P28471); experiment: as above; assay type: cell-based; conditions: for efficacy (% GABA EC3): ns = not significant
# [13] = target: recombinant rat α3β3γ2 receptors (Rattus norvegicus, UniProt P18508+P20236); experiment: as above; assay type: cell-based; conditions: α3β3γ2, ns = not significant
# [14] = tested on: GABAA receptors of mice containing the point mutation γ2F77I; conditions: receptor binding; ref Ogris et al., 2004; cited from earlier work
# Sequence of recombinant rat α6β3γ2F77I receptors (P30191 20-453): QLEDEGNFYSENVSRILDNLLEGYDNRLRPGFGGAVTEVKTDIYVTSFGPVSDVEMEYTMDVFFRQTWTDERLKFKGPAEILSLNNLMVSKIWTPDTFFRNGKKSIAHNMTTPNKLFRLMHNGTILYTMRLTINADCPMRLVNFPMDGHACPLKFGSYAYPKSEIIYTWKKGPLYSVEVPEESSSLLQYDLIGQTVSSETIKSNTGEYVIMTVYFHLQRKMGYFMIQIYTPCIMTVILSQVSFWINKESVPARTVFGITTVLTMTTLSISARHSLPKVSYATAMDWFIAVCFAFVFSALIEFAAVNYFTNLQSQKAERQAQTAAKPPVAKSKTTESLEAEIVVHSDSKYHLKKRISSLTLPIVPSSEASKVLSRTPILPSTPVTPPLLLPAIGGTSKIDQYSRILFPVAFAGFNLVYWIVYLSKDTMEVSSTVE
# Sequence of recombinant rat α6β3γ2F77I receptors (P63079 26-473 partner): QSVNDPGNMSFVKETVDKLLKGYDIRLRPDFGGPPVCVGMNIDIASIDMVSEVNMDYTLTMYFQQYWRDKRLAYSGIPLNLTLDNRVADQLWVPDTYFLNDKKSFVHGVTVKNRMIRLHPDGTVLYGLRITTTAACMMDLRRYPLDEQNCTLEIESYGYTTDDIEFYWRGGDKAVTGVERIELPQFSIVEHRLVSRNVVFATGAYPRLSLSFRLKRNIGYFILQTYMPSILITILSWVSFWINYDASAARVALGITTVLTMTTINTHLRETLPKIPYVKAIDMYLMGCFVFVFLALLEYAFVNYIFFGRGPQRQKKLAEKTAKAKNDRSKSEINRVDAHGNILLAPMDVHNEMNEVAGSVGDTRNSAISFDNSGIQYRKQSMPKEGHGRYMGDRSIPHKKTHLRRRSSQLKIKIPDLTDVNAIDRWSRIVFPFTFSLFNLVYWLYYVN
# Sequence of recombinant rat α6β3γ2F77I receptors (P18508 39-466 F115I): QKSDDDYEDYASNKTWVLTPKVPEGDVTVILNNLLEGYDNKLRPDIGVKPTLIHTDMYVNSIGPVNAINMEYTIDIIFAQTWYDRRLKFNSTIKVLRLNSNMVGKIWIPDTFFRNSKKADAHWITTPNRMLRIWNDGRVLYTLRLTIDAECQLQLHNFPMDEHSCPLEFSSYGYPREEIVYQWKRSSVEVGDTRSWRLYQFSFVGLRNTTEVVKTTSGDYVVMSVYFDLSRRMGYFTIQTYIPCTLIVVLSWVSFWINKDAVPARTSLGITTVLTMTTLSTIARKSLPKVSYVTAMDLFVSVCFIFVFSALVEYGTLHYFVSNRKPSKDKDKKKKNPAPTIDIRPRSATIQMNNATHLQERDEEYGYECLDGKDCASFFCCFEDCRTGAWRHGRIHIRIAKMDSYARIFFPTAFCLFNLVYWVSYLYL
# Sequence of recombinant rat α6β3γ2 receptors (P30191 20-453): as the sequence (P30191 20-453) above
# Sequence of recombinant rat α6β3γ2 receptors (P63079 26-473 partner): as the sequence (P63079 26-473 partner) above
# Sequence of recombinant rat α6β3γ2 receptors (P18508 39-466): as the sequence (P18508 39-466 F115I) above, with I77F counted along it
# Sequence of recombinant rat α3β3γ2 receptors (P20236 29-493): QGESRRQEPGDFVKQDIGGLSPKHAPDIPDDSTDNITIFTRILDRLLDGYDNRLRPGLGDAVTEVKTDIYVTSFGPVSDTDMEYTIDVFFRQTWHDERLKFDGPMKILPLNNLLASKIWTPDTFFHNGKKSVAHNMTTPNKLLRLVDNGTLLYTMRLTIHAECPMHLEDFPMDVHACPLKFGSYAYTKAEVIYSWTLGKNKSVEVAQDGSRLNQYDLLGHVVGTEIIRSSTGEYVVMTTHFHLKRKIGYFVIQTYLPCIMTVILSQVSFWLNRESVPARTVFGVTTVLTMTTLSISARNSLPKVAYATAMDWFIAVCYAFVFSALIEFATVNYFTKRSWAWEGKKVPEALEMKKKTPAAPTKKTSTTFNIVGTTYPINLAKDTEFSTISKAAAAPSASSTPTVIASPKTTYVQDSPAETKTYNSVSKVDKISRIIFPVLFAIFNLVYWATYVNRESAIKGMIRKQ
# Sequence of recombinant rat α3β3γ2 receptors (P63079 26-473 partner): as the sequence (P63079 26-473 partner) above
# Sequence of recombinant rat α3β3γ2 receptors (P18508 39-466): as the sequence (P18508 39-466 F115I) above, with I77F counted along it
structure (smiles),measurement,setting,value
"CCOC(=O)c1ncn2c1CN(C)C(=O)c1cc(F)ccc1-2 [Ro15–1788, ethyl-8-fluoro-5,6-dihydro-5-methyl-6-oxo-4H-imidazo[1,5-a][1,4]benzodiazepine-3-carboxylate]",efficacy (% GABA EC3),[1]; 10 nM,ns
same,efficacy (% GABA EC3),[1]; 100 nM,ns
same,efficacy (% GABA EC3),[1]; 1 μM,ns
same,efficacy (% GABA EC3),[1]; 10 μM,ns
same,"maximal effect on GABA-induced chloride flux (GABA EC3), % of control current",[1]; control current = 100%,no significant effects
same,efficacy (% GABA EC3),[2]; 10 nM,ns
same,efficacy (% GABA EC3),[2]; 100 nM,106 ± 1 % GABA EC3
same,efficacy (% GABA EC3),[2]; 1 μM,118 ± 2 % GABA EC3
same,efficacy (% GABA EC3),[2]; 10 μM,139 ± 4 % GABA EC3
same,activity in the mutated receptors,[3]; up to 100 nM,inactive
same,efficacy (% GABA EC3),[4]; 10 nM,ns
same,efficacy (% GABA EC3),[4]; 100 nM,ns
same,efficacy (% GABA EC3),[4]; 1 μM,ns
same,efficacy (% GABA EC3),[4]; 10 μM,ns
same,efficacy (% GABA EC3),[5]; 10 nM,ns
same,efficacy (% GABA EC3),[5]; 100 nM,ns
same,efficacy (% GABA EC3),[5]; 1 μM,ns
same,efficacy (% GABA EC3),[5]; 10 μM,ns
same,efficacy (% GABA EC3),[6]; 10 nM,ns
same,efficacy (% GABA EC3),[6]; 100 nM,ns
same,efficacy (% GABA EC3),[6]; 1 μM,ns
same,efficacy (% GABA EC3),[6]; 10 μM,ns
same,efficacy (% GABA EC3),[7]; 10 nM,ns
same,efficacy (% GABA EC3),[7]; 100 nM,ns
same,efficacy (% GABA EC3),[7]; 1 μM,ns
same,efficacy (% GABA EC3),[7]; 10 μM,ns
same,efficacy (% GABA EC3),[8]; 10 nM,ns
same,efficacy (% GABA EC3),[8]; 100 nM,ns
same,efficacy (% GABA EC3),[8]; 1 μM,ns
same,efficacy (% GABA EC3),[8]; 10 μM,ns
same,efficacy (% GABA EC3),[9]; 10 nM,121 ± 2 % GABA EC3
same,efficacy (% GABA EC3),[9]; 100 nM,128 ± 4 % GABA EC3
same,efficacy (% GABA EC3),[9]; 1 μM,130 ± 5 % GABA EC3
same,efficacy (% GABA EC3),[9]; 10 μM,133 ± 7 % GABA EC3
same,efficacy (% GABA EC3),[10]; 10 nM,ns
same,efficacy (% GABA EC3),[10]; 100 nM,ns
same,efficacy (% GABA EC3),[10]; 1 μM,ns
same,efficacy (% GABA EC3),[10]; 10 μM,ns
same,"maximal effect on GABA-induced chloride flux (GABA EC3), % of control current",[10]; control current = 100%,no significant effects
same,efficacy (% GABA EC3),[11]; 10 nM,ns
same,efficacy (% GABA EC3),[11]; 100 nM,128 ± 18 % GABA EC3
same,efficacy (% GABA EC3),[11]; 1 μM,166 ± 9 % GABA EC3
same,efficacy (% GABA EC3),[11]; 10 μM,179 ± 6 % GABA EC3
same,EC50,[12],> 0.232 µM
same,efficacy (% GABA EC3),"[12]; 10 nM, α4β3γ2",ns
same,efficacy (% GABA EC3),"[12]; 100 nM, α4β3γ2",132 ± 8 % GABA EC3
same,efficacy (% GABA EC3),"[12]; 1 μM, α4β3γ2",162 ± 19 % GABA EC3
same,efficacy (% GABA EC3),"[12]; 10 μM, α4β3γ2",181 ± 10 % GABA EC3
same,efficacy (% GABA EC3),[13]; 10 nM,128 ± 4 % GABA EC3
same,efficacy (% GABA EC3),[13]; 100 nM,148 ± 7 % GABA EC3
same,efficacy (% GABA EC3),[13]; 1 μM,156 ± 8 % GABA EC3
same,efficacy (% GABA EC3),[13]; 10 μM,157 ± 8 % GABA EC3
"Cc1ccc(-c2nc3ccc(C)cn3c2CC(=O)N(C)C)cc1 [Zolpidem, N,N,6-trimethyl-2-(4-methylphenyl)imidazo[1,2-a]-pyridine-3-acetamide]",shift in affinity caused by γ2F77I,[14],approximately 300 fold
same,efficacy (% GABA EC3),[2]; 100 nM,ns
same,efficacy (% GABA EC3),[2]; 1 μM,ns
same,efficacy (% GABA EC3),[2]; 10 μM,145 ± 5 % GABA EC3
same,stimulation of GABA-induced chloride flux,"[3]; 10 μM, some γ2F77I receptors",20–40%
same,efficacy (% GABA EC3),[4]; 100 nM,ns
same,efficacy (% GABA EC3),[4]; 1 μM,ns
same,efficacy (% GABA EC3),[4]; 10 μM,142 ± 8 % GABA EC3
same,efficacy (% GABA EC3),[7]; 100 nM,ns
same,efficacy (% GABA EC3),[7]; 1 μM,ns
same,efficacy (% GABA EC3),[8]; 100 nM,ns
same,efficacy (% GABA EC3),[8]; 1 μM,ns
same,efficacy (% GABA EC3),[8]; 10 μM,145 ± 3 % GABA EC3
same,efficacy (% GABA EC3),[10]; 100 nM,ns
same,efficacy (% GABA EC3),[10]; 1 μM,ns
same,efficacy (% GABA EC3),[10]; 10 μM,ns
same,efficacy (% GABA EC3),"[10]; 10 μM, listed as zolpidem",unable to modulate
same,efficacy (% GABA EC3),[11]; 10 μM,ns
same,"maximal effect on GABA-induced chloride flux (GABA EC3), % of control current",[11]; control current = 100%,did not significantly enhance
same,efficacy (% GABA EC3),"[12]; 100 nM, α4β3γ2",ns
same,efficacy (% GABA EC3),"[12]; 1 μM, α4β3γ2",ns
same,efficacy (% GABA EC3),"[12]; 10 μM, α4β3γ2",ns
same,"maximal effect on GABA-induced chloride flux (GABA EC3), % of control current","[12]; α4β3γ2, control current = 100%",did not significantly enhance
